# Assay results published in ChEMBL document CHEMBL1201862, “PubChem BioAssay data set” (2004).
#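 Grown in 96-well plates, cells were treated for 48 hours with each compound at five concentrations. Insufficient inhibition: endpoint recorded as highest concentration tested. Abbreviation: GI50, concentration required for 50% inhibition of growth.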 Calls of active or inactive are those of the source. No stated cut-off is given here; in the data, active = GI50 up to about 1.1 µM and inactive = higher.
# Key:
# Experiment in all cases: NCI anticancer screen, dose series, 48 h
# DU-145 = system: DU-145
# KM12 = system: KM12
# MDA-MB-231 = system: MDA-MB-231
# OVCAR-5 = system: OVCAR-5
# SK-OV-3 = system: SK-OV-3
# SR = system: SR
# CCRF-CEM = system: CCRF-CEM
# SNB-19 = system: SNB-19
# MCF7 = system: MCF7
# SK-MEL-5 = system: SK-MEL-5
# SF-539 = system: SF-539
# NCI/ADR-RES = system: NCI/ADR-RES
# M14 = system: M14
# CAKI-1 = system: CAKI-1
# MDA-MB-435 = system: MDA-MB-435
# BT-549 = system: BT-549
# OVCAR-8 = system: OVCAR-8
# HCT-15 = system: HCT-15
# HCC 2998 = system: HCC 2998
# SW-620 = system: SW-620
# SK-MEL-28 = system: SK-MEL-28
# UO-31 = system: UO-31
# UACC-257 = system: UACC-257
# HL-60 = system: HL-60
# K562 = system: K562
# TK-10 = system: TK-10
# U-251 = system: U-251
# RPMI-8226 = system: RPMI-8226
# NCI-H226 = system: NCI-H226
# A549 = system: A549
# HOP-62 = system: HOP-62
# NCI-H460 = system: NCI-H460
# PC-3 = system: PC-3
# SNB-75 = system: SNB-75
# 786-0 = system: 786-0
# RXF 393 = system: RXF 393
# IGROV-1 = system: IGROV-1
# EKVX = system: EKVX
# UACC-62 = system: UACC-62
# A498 = system: A498
# SN12C = system: SN12C
# Hs-578T = system: Hs-578T
# Malme-3M = system: Malme-3M
# NCI-H522 = system: NCI-H522
# LOX IMVI = system: LOX IMVI
# SF-268 = system: SF-268
# T47D = system: T47D
# COLO 205 = system: COLO 205
# NCI-H23 = system: NCI-H23
# SF-295 = system: SF-295
# ACHN = system: ACHN
# MDA-N = system: MDA-N
# MOLT-4 = system: MOLT-4
# OVCAR-3 = system: OVCAR-3
# HCT-116 = system: HCT-116
# OVCAR-4 = system: OVCAR-4
# SK-MEL-2 = system: SK-MEL-2
# HOP-92 = system: HOP-92
# HT-29 = system: HT-29
smiles,measurement,setting,value
CCn1c(SCC(=O)NNC(=S)NC)nc2ccccc2c1=O,GI50,DU-145,> 100 µM (inactive)
same,GI50,KM12,> 100 µM (inactive)
same,GI50,MDA-MB-231,> 100 µM (inactive)
same,GI50,OVCAR-5,> 100 µM (inactive)
same,GI50,SK-OV-3,> 100 µM (inactive)
same,GI50,SR,> 100 µM (inactive)
same,GI50,CCRF-CEM,> 100 µM (inactive)
same,GI50,SNB-19,> 100 µM (inactive)
same,GI50,MCF7,> 100 µM (inactive)
same,GI50,SK-MEL-5,> 100 µM (inactive)
same,GI50,SF-539,> 100 µM (inactive)
same,GI50,NCI/ADR-RES,> 100 µM (inactive)
same,GI50,M14,> 100 µM (inactive)
same,GI50,CAKI-1,24.1 µM (inactive)
same,GI50,MDA-MB-435,> 100 µM (inactive)
same,GI50,BT-549,68.1 µM (inactive)
same,GI50,OVCAR-8,> 100 µM (inactive)
same,GI50,HCT-15,> 100 µM
same,GI50,HCC 2998,> 100 µM (inactive)
same,GI50,SW-620,> 100 µM (inactive)
same,GI50,SK-MEL-28,> 100 µM (inactive)
same,GI50,UO-31,62.2 µM (inactive)
same,GI50,UACC-257,> 100 µM (inactive)
same,GI50,HL-60,> 100 µM (inactive)
same,GI50,K562,> 100 µM (inactive)
same,GI50,TK-10,49 µM (inactive)
same,GI50,U-251,> 100 µM (inactive)
same,GI50,RPMI-8226,53 µM (inactive)
same,GI50,NCI-H226,> 100 µM (inactive)
same,GI50,A549,88.9 µM (inactive)
same,GI50,HOP-62,> 100 µM (inactive)
same,GI50,NCI-H460,18.6 µM (inactive)
same,GI50,PC-3,96.8 µM (inactive)
same,GI50,SNB-75,> 100 µM (inactive)
same,GI50,786-0,> 100 µM (inactive)
same,GI50,RXF 393,34 µM (inactive)
same,GI50,IGROV-1,> 100 µM (inactive)
same,GI50,EKVX,> 100 µM (inactive)
same,GI50,UACC-62,> 100 µM (inactive)
same,GI50,A498,69 µM (inactive)
same,GI50,SN12C,> 100 µM (inactive)
same,GI50,Hs-578T,> 100 µM (inactive)
same,GI50,Malme-3M,> 100 µM (inactive)
same,GI50,NCI-H522,> 100 µM (inactive)
same,GI50,LOX IMVI,> 100 µM (inactive)
same,GI50,SF-268,> 100 µM (inactive)
same,GI50,T47D,> 100 µM (inactive)
same,GI50,COLO 205,> 100 µM (inactive)
same,GI50,NCI-H23,> 100 µM (inactive)
same,GI50,SF-295,> 100 µM (inactive)
same,GI50,ACHN,> 100 µM (inactive)
same,GI50,MDA-N,> 100 µM (inactive)
same,GI50,MOLT-4,> 100 µM (inactive)
same,GI50,OVCAR-3,> 100 µM (inactive)
same,GI50,HCT-116,> 100 µM (inactive)
same,GI50,OVCAR-4,76.4 µM (inactive)
same,GI50,SK-MEL-2,> 100 µM (inactive)
Cc1ccc(-c2nc3cc(Cl)ccc3[nH]2)cc1,GI50,DU-145,> 100 µM (inactive)
same,GI50,KM12,46.8 µM (inactive)
same,GI50,MDA-MB-231,> 100 µM (inactive)
same,GI50,SK-OV-3,> 100 µM (inactive)
same,GI50,SR,3.38 µM (inactive)
same,GI50,CCRF-CEM,> 100 µM (inactive)
same,GI50,SNB-19,> 100 µM (inactive)
same,GI50,MCF7,> 100 µM (inactive)
same,GI50,HOP-92,> 100 µM (inactive)
same,GI50,SK-MEL-5,> 100 µM (inactive)
same,GI50,SF-539,> 100 µM (inactive)
same,GI50,NCI/ADR-RES,71.3 µM (inactive)
same,GI50,M14,> 100 µM (inactive)
same,GI50,CAKI-1,> 100 µM (inactive)
same,GI50,MDA-MB-435,54.1 µM (inactive)
same,GI50,BT-549,> 100 µM (inactive)
same,GI50,OVCAR-8,> 100 µM (inactive)
same,GI50,HCT-15,80.5 µM
same,GI50,HCC 2998,53.2 µM (inactive)
same,GI50,SW-620,> 100 µM (inactive)
same,GI50,SK-MEL-28,> 100 µM (inactive)
same,GI50,UO-31,> 100 µM (inactive)
same,GI50,UACC-257,> 100 µM (inactive)
same,GI50,HL-60,27 µM (inactive)
same,GI50,K562,45.5 µM (inactive)
same,GI50,TK-10,> 100 µM (inactive)
same,GI50,U-251,> 100 µM (inactive)
same,GI50,RPMI-8226,46.8 µM (inactive)
same,GI50,NCI-H226,> 100 µM (inactive)
same,GI50,A549,83.4 µM (inactive)
same,GI50,HOP-62,> 100 µM (inactive)
same,GI50,NCI-H460,> 100 µM (inactive)
same,GI50,PC-3,79.1 µM (inactive)
same,GI50,SNB-75,> 100 µM (inactive)
same,GI50,786-0,> 100 µM (inactive)
same,GI50,RXF 393,> 100 µM (inactive)
same,GI50,IGROV-1,> 100 µM (inactive)
same,GI50,EKVX,> 100 µM (inactive)
same,GI50,UACC-62,> 100 µM (inactive)
same,GI50,SN12C,> 100 µM (inactive)
same,GI50,Hs-578T,> 100 µM (inactive)
same,GI50,Malme-3M,> 100 µM (inactive)
same,GI50,NCI-H522,91.2 µM (inactive)
same,GI50,LOX IMVI,> 100 µM (inactive)
same,GI50,SF-268,> 100 µM (inactive)
same,GI50,T47D,> 100 µM (inactive)
same,GI50,COLO 205,71.6 µM (inactive)
same,GI50,NCI-H23,> 100 µM (inactive)
same,GI50,SF-295,> 100 µM (inactive)
same,GI50,ACHN,97.5 µM (inactive)
same,GI50,MDA-N,42.5 µM (inactive)
same,GI50,MOLT-4,32.4 µM (inactive)
same,GI50,HT-29,49 µM (inactive)
same,GI50,OVCAR-3,> 100 µM (inactive)
same,GI50,HCT-116,> 100 µM (inactive)
same,GI50,OVCAR-4,> 100 µM (inactive)
same,GI50,SK-MEL-2,> 100 µM (inactive)
